Data published in US7358276B2, “2-Oxo-1-pyrrolidine derivatives, processes for preparing them and their uses” (UCB, S.A., priority 2000, dated 2008).

Tests used:
[1] = test system: audiogenic seizures in sound-susceptible mice; test: Animal model of sound-susceptible mice (audiogenic seizures); assay type: in vivo; conditions: intraperitoneally 60 minutes before induction of audiogenic seizures; doses given in mol/kg
Source text: The activity of the compounds of formula I, or their pharmaceutically acceptable salts, as anticonvulsants can be determined in the audiogenic seizures model. The objective of this test is to evaluate the anticonvulsant potential of a compound by means of audiogenic seizures induced in sound-susceptible mice, a genetic animal model with reflex seizures. In this model of primary generalised epilepsy, seizures are evoked without electrical or chemical stimulation and the seizure types are, at least in part, similar in their clinical phenomenology to seizures occurring in man (Löscher W. & Schmidt D., Epilepsy Res. (1998), 2, p. 145-181; Buchhalter J. R., Epilepsia (1993), 34, S31-S41). Results obtained with compounds of formula I are indicative of a strong pharmacological effect.
The objective of this test is to evaluate the anticonvulsant potency of a compound in sound-susceptible mice, a genetic animal model with reflex seizures. In this model of primary generalised epilepsy, seizures are evoked without electrical or chemical stimulation and the seizure types are, at least in part, similar in their clinical phenomenology to seizures occuring in man (Löscher W. & Schmidt D., Epilepsy Res. (1998), 2, 145-181; Buchhalter J. R., Epilepsia (1993), 34, S31-S41).
Male or female genetically sound-sensitive mice (14-28 g; N=10), derived from a DBA strain originally selected by Dr. Lehmann of the Laboratory of Acoustic Physiology (Paris) and bred in the UCB Pharma Sector husbandry unit since 1978, are used. The experimental design consisted of several groups, one group receiving the vehicle control and the other groups different doses of the test-compound. The compounds are administered intraperitoneally 60 minutes before the induction of audiogenic seizures.
For testing, the animals are placed in small cages, one mouse per cage, in a sound-attenuated chamber. After a period of orientation of 30 seconds, the acoustic stimulus (90 dB, 10-20 kHz) is delivered for 30 seconds via loudspeakers positioned above each cage. During this interval, the mice are observed and the presence of the 3 phases of the seizure activity namely wild running, clonic and tonic convulsions, is recorded. The proportion of mice protected against wild running, clonic and tonic convulsions, respectively, is calculated.
For active compounds, an ED50 value, i.e. the dose producing 50% protection relative to the control group, together with 95% confidence limits, was calculated using a Probit Analysis (SAS/STAT® Software, version 6.09, PROBIT procedure) of the proportions of protected mice for each of the 3 phases of the seizure activity.

[2] = target: T1, Levetiracetam Binding Site (LBS), rat cerebral cortex membranes (Rattus norvegicus, UniProt Q02563); test: LBS binding assay (competitive binding, [3H]-2-[4-(3-azidophenyl)-2-oxo-1-pyrrolidinyl]butanamide); conditions: 4° C., 120 min
T1 construct: The crude membrane pellet obtained is resuspended in 50 mmol/l Tris-HCl (pH 7.4); from tissue; host or cells: rat cerebral cortex crude membranes (male Sprague-Dawley)
T1 sequence (Q02563 whole entry): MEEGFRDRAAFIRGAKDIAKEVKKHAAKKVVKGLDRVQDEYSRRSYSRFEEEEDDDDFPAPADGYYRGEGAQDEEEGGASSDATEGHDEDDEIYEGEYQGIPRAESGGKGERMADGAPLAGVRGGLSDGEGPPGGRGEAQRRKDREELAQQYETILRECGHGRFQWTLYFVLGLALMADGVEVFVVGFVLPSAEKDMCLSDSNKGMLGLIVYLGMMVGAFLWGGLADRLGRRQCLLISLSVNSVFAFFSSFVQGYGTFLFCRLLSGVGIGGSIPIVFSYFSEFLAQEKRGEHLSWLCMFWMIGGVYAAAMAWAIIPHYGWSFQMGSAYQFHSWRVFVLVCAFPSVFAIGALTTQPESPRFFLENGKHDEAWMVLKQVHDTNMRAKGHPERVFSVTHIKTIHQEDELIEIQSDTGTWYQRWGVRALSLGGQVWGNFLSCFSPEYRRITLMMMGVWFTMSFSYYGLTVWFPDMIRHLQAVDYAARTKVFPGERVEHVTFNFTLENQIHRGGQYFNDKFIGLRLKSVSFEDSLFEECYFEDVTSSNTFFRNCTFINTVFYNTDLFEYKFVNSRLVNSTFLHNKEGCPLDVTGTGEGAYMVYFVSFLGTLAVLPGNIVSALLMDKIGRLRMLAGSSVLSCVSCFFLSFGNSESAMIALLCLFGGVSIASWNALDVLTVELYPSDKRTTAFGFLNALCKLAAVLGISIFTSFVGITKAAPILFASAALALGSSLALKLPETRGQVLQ

Structure (SMILES) | melting point [°C] | ED50 (dose producing 50% protection against audiogenic seizures) [1] | pKi (affinity for the levetiracetam binding site) [2]
C=C[C@H]1CC(=O)N([C@@H](CC)C(N)=O)C1 [Compound 93] | 68.3 | Particularly promising activity | Particular affinity
CCC(C(N)=O)N1CC(c2ccccc2Br)CC1=O (stereo not drawn) [Compound 95] | 165.4 | Particularly promising activity | Particular affinity
CCC(C(N)=O)N1CC(c2cccnc2)CC1=O (stereo not drawn) [Compound 96] | 104.3 | Particularly promising activity | Particular affinity
CC[C@@H](C(=O)NC)N1CC(CI)CC1=O (stereo partly drawn) [Compound 146, (2S)-2-[4-(iodomethyl)-2-oxo-1-pyrrolidinyl]-N-methylbutanamide] | 66.6 | Particularly promising activity | Particular affinity
CCC(C(N)=O)N1CC(/C=C\F)CC1=O (stereo not drawn) [Compound 162] | 105 | Particularly promising activity | Particular affinity
CCCCC1CC(=O)N(C(CC)C(N)=O)C1 (stereo not drawn) [Compound 164] | 108.8 | Particularly promising activity | Particular affinity
CCC(C(N)=O)N1CC(CC(C)C)CC1=O (stereo not drawn) [Compound 166] | 120.2 | Particularly promising activity | Particular affinity
CC[C@@H](C(N)=O)N1CC(c2cccc(Br)c2)CC1=O (stereo partly drawn) [Compound 180] | 99.6 | Particularly promising activity | Particular affinity
CCC(C(N)=O)N1CC(c2ccc(Cl)c(Cl)c2)CC1=O (stereo not drawn) [Compound 187] | 177.9 | Particularly promising activity | Particular affinity
CCC(C(N)=O)N1CC(c2ccc(Cl)cc2Cl)CC1=O (stereo not drawn) [Compound 188] | 154.7 | Particularly promising activity | Particular affinity
CCC(C(N)=O)N1CC(CCCc2ccccc2)CC1=O (stereo not drawn) [Compound 197] | 92.5 | Particularly promising activity | Particular affinity
CC[C@@H](C(N)=O)N1CC(c2cc(Br)cc(Br)c2)CC1=O (stereo partly drawn) [Compound 198] | 118.6 | Particularly promising activity | Particular affinity
CCC(C(N)=O)N1CC(c2ccc(Cl)c(Cl)c2)CC1=O (stereo not drawn) [Compound 200] | 154.4 | Particularly promising activity | Particular affinity
CCC(C(N)=O)N1CC(c2ccccc2F)CC1=O (stereo not drawn) [Compound 209] | 123.7 | Particularly promising activity | Particular affinity
CCC(C(N)=O)N1CC(c2ccccc2F)CC1=O (stereo not drawn) [Compound 211] | 150.9 | Particularly promising activity | Particular affinity
CC[C@@H](C(N)=O)N1CC(CC2CC2)CC1=O (stereo partly drawn) [Compound 212] | 104.4 | Particularly promising activity | Particular affinity
